Laboratory results reported in patent publication US4895937A, “5-ioso-2-pyrimidinone nucleoside” (The Research Foundation of State University of New York, priority 1988, dated 1990).
Values joined by “and” are separate entries in the source; they are usually repeats but may differ in a detail not shown here. Identical values can stand only once. “Also recorded” adds a separate entry of the source. Like-named read-outs stand apart in the source and are kept apart here.

Columns and labels:
[1] = test system: HSV-2 (333); assay: Antiherpes activity, HSV-2 (333) (Example 10); type: cell-based; settings: Human alphaherpesvirus 2; 100 μM; read-out: plaque-forming units as % of control
Procedure: (§1) IPdR and 5-bromo-2-pyrimidinone-2-deoxyribonucleoside (BrPdR) were tested for antiherpes activity according to procedures described by Cheng, Y.-C., et al. Antimicrob. Agents Chemother (1976) 10, 119.

[2] = test system: HSV-1 (CLl0l); assay: Antiherpes activity, HSV-1 (CLl0l) (Example 10); type: cell-based; settings: Human alphaherpesvirus 1; 100 μM; read-out: plaque-forming units as % of control
Procedure: as §1

[3] = test system: ACG (Tr7), acyclovir resistant strain of HSV1; assay: Antiherpes activity, acyclovir resistant strain of HSV1 (Tr7) (Example 10); type: cell-based, HSV-1; settings: Human alphaherpesvirus 1, read-out: plaque-forming units as % of control
Procedure: as §1

[4] = test system: ACG (S1), acyclovir resistant strain of HSV1; assay: Antiherpes activity, acyclovir resistant strain of HSV1 (S1) (Example 10); type: cell-based, HSV-1
Procedure: as §1

[5] = test system: human nasopharyngeal carcinoma KB cells; assay: Cytotoxicity / cell proliferation in KB cells (Example 8 Part B); type: cell-based
Procedure: (§2) To compare the toxicity of FPdR and IPdR human nasopharyngeal carcinoma KB cells obtained from the American Type Culture Collection were maintained as a monolayer in RPMI 1640 supplemented with 5% fetal bovine serum, 10 mM HEPES buffer (pH 7.4) and karamycin (100 μg/ml). Cells were maintained at 37° C. in a humidified atmosphere of 5% CO2 in air. Cell numbers were determined with an electronic particle counter (Particle Data, Inc., Elmhurst, Ill.).
(§3) For determination of drug effect on cell proliferation, cells were harvested from rapidly proliferting cultures by treatment with pancreation. Cell number was determined and plated in 24 well (6 mm well diameter) plates at a concentratin of 5×10^3 cells/ml. Drug exposures were initiated by a complete change of medium after overnight incubation. Following a 72 hour drug exposure […]. of thiazolyl blue was added and incubated for a further 4 hour period. The media from the plates was aspirated completely and […] DMSO was added to each well. The plates were placed on a shaker for 5 minutes and the blue solution transferred to 96 well plates and read at 540 nm with a scanning multiwell spectrophotometer (Biotek Instruments, Inc. Burlington, Vt.).

[6] = as above; type: cell-based, human; settings: human, kb cells, 72 hour exposure
Procedure: as §2, §3

[7] = test system: HSV-2 (333 strain); assay: In vivo test of IPdR in mice implanted with HSV-2 (333 strain), survival (Example 4); parameters: species or system Swiss Webster Balb/C mice; settings: 100 mg/kg twice daily for 2.5 days; for DAYS--SURVIVAL: deaths: 5 mice; for long term survivors (>30 days): out of 5 mice
Procedure: The substituted pyrimidinone of Example 3, 1-(2-deoxy)-β-D-ribofuranosyl)-5-iodo-2-pyrimidinone (IPdR) was tested in vivo. Three groups of five Swiss Webster Balb/C mice weighing from 19 to 23 grams were implanted with HSV-2 (333 strain) with a virus load of 5×10^5 plaque forming units.
Drug administration began one day following virus implant. The IPdR was administered subcutaneously to a first group of mice and intraperitoneally to a second group of mice. The third group of mice which performed as controls were not given any IPdR. The dosage of IPdR was at the rate of 100 mg/kg twice daily for 2.5 days for a total of 5 doses.

[8] = test system: acyclovir (ACG) and BVdU resistant strains of HSV-1; assay: Antiherpes activity against acyclovir (ACG) and BVdU resistant strains of HSV-1, overall statement; type: cell-based
Procedure: as §1

[9] = test system: HSV-1 and HSV-2 strains (herpes virus group); assay: Antiherpes activity, overall statement; type: cell-based
Procedure: as §1

[10] = test system: PFA-resistant strains; assay: Antiherpes activity, PFA-resistant strain (Example 10); type: cell-based
Procedure: as §1

[11] = test system: BVdU resistant strain of HSV-1; assay: Antiherpes activity, BVdU resistant strain (Example 10); type: cell-based; settings: Human alphaherpesvirus 1, read-out: plaque-forming units as % of control
Procedure: as §1

[12] = test system: HSV-2 (Strain 333); assay: Antiviral activity in HSV-2 infected mice by various routes (Example 9); type: in vivo, Swiss-Webster female mice; settings: for % ILS: excluding 45 day survivors
Procedure: The drugs were administered once a day for five days or twice daily (12 hour intervals) for 2.5 days beginning 24 hours postinfection. Mean body weight determinations of drug treated and control animals were made during the treatment period as an indicator of sublethal toxicity. Deaths were recorded through day 45.

[13] = test system: HSV-1 (KOS); assay: Antiherpes activity, HSV-1 (KOS) (Example 10); type: cell-based; settings: Human alphaherpesvirus 1; 100 μM; read-out: plaque-forming units as % of control
Procedure: as §1

[14] = test system: HSV-2 (CEU-G); assay: Antiherpes activity, HSV-2 (CEU-G) (Example 10); type: cell-based; settings: Human alphaherpesvirus 2, read-out: plaque-forming units as % of control
Procedure: as §1

[15] = 100 mg/kg oral, 2 × 21/2, 72 hours after implant
[16] = 100 mg/kg oral, 2 × 21/2, innoculation dose 1 × 10^6 PFU

## O=c1ncc(I)cn1[C@H]1C[C@H](O)[C@@H](CO)O1 [IPdR, 1-(2-Deoxy-β-D-Ribofuranosyl)-5-iodo-2-pyrimidinone]
[1]
  activity at 100 µM: 2.8%
[2]
  activity at 100 µM: 1.6%
[3]
  activity at 100 µM: 2.6%
[4]; Human alphaherpesvirus 1, read-out: plaque-forming units as % of control
  activity at 100 µM: 22%
[4]; S1 compared with Tr7
  cross resistance of the more highly ACG-resistant strain: more cross resistance
[5]
  toxicity against the host cells: low level of toxicity for the host cell
[6]; 100 μm, read-out: % Growth
  activity at 72 h, 100 µM: 75%
[6]; 200 μm, read-out: % Growth
  activity at 72 h, 200 µM: 80%
[6]; cytotoxicity, read-out: ID50
  IC50 at 72 h: > 200 µM
[7]; intraperitoneal
  DAYS--SURVIVAL: deaths: 1 died on day 17
  long term survivors (>30 days): 4
[7]; subcutaneous, 100 mg/kg
  DAYS--SURVIVAL: deaths: 1 died on day 11 and 2 died on day 13
[7]; subcutaneous
  long term survivors (>30 days): 2
[7]; subcutaneous, control 9.4 days average
  DAYS--SURVIVAL: days average: 12 days
[8]
  activity against acyclovir (ACG) and BVdU resistant strains: somewhat reduced but still significant activity
[9]
  antiherpes / anti-viral activity (words): significant antiherpes activities; also recorded: showing the higher activity
[9]; listed as 1-(2-Deoxy-β-D-ribofuranosyl)-5-(iodo)-2-pyrimidinone
  antiherpes / anti-viral activity (words): high level of anti-viral activity
[10]
  activity against PFA-resistant strains: retained full activity
[10]; 100 μM, read-out: plaque-forming units as % of control
  activity at 100 µM: 0.1%
[11]
  activity at 100 µM: 14%
[12]; 10 mg/kg IP, 2 × 21/2
  Survivors/Total: 0/5
  percent survival: 0%
  % ILS: 133%
[12]; 10 mg/kg IP, 2 × 21/2, control 9.3 ± 1.1
  Mean Survival Time (days), of the mice that died: 12.8 ± 3.6 days
[12]; 10 mg/kg oral, 2 × 21/2
  Survivors/Total: 0/5
  percent survival: 0%
  % ILS: 123%
[12]; 10 mg/kg oral, 2 × 21/2, control 10.6 ± 2.1
  Mean Survival Time (days), of the mice that died: 12.8 ± 3.6 days
[12]; 40 mg/kg IP, 2 × 21/2
  Survivors/Total: 2/5
  percent survival: 40%
  % ILS: 108%
[12]; 40 mg/kg IP, 2 × 21/2, control 9.3 ± 1.1
  Mean Survival Time (days), of the mice that died: 10.0 ± 1.0 days
[12]; 40 mg/kg oral, 2 × 21/2
  Survivors/Total: 2/5
  percent survival: 40%
  % ILS: 94%
[12]; 40 mg/kg oral, 2 × 21/2, control 10.6 ± 2.1
  Mean Survival Time: 10.0 ± 1.0 days
[12]; 100 mg/kg IP, 1 × 5
  Survivors/Total: 7/10
  percent survival: 70%
  % ILS: 129%
[12]; 100 mg/kg IP, 1 × 5, control 9.6 ± 1.1
  Mean Survival Time (days), of the mice that died: 12.0 ± 4.4 days
[12]; 100 mg/kg IP, 2 × 21/2
  Survivors/Total: 6/10
  percent survival: 60%
  % ILS: 135%
[12]; 100 mg/kg IP, 2 × 21/2, control 9.3 ± 1.1
  Mean Survival Time (days), of the mice that died: 12.5 ± 1.3 days
[12]; 100 mg/kg SC, 1 × 5
  Survivors/Total: 2/5
  percent survival: 40%
  % ILS: 131%
[12]; 100 mg/kg SC, 1 × 5, control 9.4 ± 1.1
  Mean Survival Time (days), of the mice that died: 12.3 ± 1.2 days
[12]; 100 mg/kg oral, 2 × 21/2
  Survivors/Total: 20/20
  percent survival: 100%
[12]; [15]
  Survivors/Total: 5/5
  percent survival: 100%
[12]; 100 mg/kg oral, 2 × 21/2, control 9.8 ± 1.3
  Mean Survival Time: > 45 days
[12]; 100 mg/kg oral, 2 × 21/2, control 10.6 ± 2.1
  Mean Survival Time: > 45 days
[12]; [16]
  Survivors/Total: 4/5
  percent survival: 80%
  % ILS: 140%
[12]; 100 mg/kg oral, 2 × 21/2, innoculation dose 1 × 10^6 PFU, control 10.0 ± 1.2
  Mean Survival Time (days), of the mice that died: 14.0 days
[12]; oral, intraperitoneal or subcutaneous
  toxicity to the host: without significant toxicity to the host
[12]; summary of Table 5
  activity against HSV-2 in vivo / life span of the host: active against HSV-2 in vivo; also recorded: can significantly increase
[13]
  activity at 100 µM: 0.27%
[14]
  activity at 100 µM: 9.3%
